# Measurements taken from patent US20190060428A1, “FORMULATIONS FOR NEOPLASIA VACCINES AND METHODS OF PREPARING THEREOF” (The Broad Institue Inc., priority 2015, published 2019).
# Test: physchem
# Details: pH 6
row,Substance,solubility [µg/mL]
1,H-DGAWPVLLDKFVEWYKDKQMS-OH,> 2000
2,H-RQRRGRLGLPGEAGLEGFEPSDALGPD-OH,> 2000
3,H-AAAFPSQRTSWEFLQSLVSIKQEKPA-OH,< 2000
4,H-ALCPASRALEEKKGNYVV-OH,> 2000
5,H-LNTGLFRIKFKEPLENLI-OH,> 2000
6,H-SSPLGRANGRRFANPRDSFSAMGFQR-OH,> 2000
7,H-DPDVGVNSLQQYYLSPDLHFSLI-OH,< 2000
8,H-EEFNRRVRENPWDTQLWMAFVAFQDE-OH,< 2000
9,H-ISSLFVSYFLYRVVFHFE-OH,< 2000
10,H-SSELTAVNFPSFHVTSLKLMVSPTS-OH,> 2000
11,H-ADRRRQRSTFRAVLHFVEGGESEE-OH,< 2000
12,H-VKQLERGEASVVDFKKNLEYAAT-OH,> 2000
13,H-LVGQLKRVPRTGRVYRNVQRPESVS-OH,> 2000
14,H-LENNANHDETSFLLPRKESNIVD-OH,> 2000
15,H-EIHGKCENMTITSRGTTVTPTKETVSLG-OH,> 2000
16,H-KAHVEGDGVVEEIIRYHPFLYDRET-OH,< 2000
17,H-STQHADLTIIDNIKEMNFLRRYK-OH,> 2000
18,H-LKEMNEKVSFIKNSLLSLDSQVGHLQD-OH,< 2000
19,H-LPDEVSGLEQLESIINFEKLTEWTSSNVME-OH,> 2000
20,H-KHLPGVNFPGNQWNPVEGILPS-OH,> 2000
21,H-FAKGFRESDLNSWPVAPRPLLSV-OH,> 2000
22,H-KKNITNLSRLVVRPDTDAVY-OH,> 2000
23,H-YLSHTLGAASSFMRPTVPPPQF-OH,> 2000
24,H-WCTEMKRVFGFPVHYTDVSNMS-OH,> 2000
25,H-AIISSLFVSYFLYR-OH,< 2000
26,H-SLTEESGGAVAFFPGNLSTSSSA-OH,> 2000
27,H-SHQIHSYQLYTHPLLHPWDHRD-OH,> 2000

row,Substance,solubility [µg/mL]
1,H-DVTGPHLYSIYLHGSTDKLPYVTMGS-OH,> 2000
2,H-SRLQTRKNKKLALSSTPSNIAPSD-OH,> 2000
3,H-SPQSGGAATLAAQARLQPVHLDVWGEHERG-OH,> 2000
4,H-TNGPEKNSSSFPSSVDYAASGPRKL-OH,> 2000
5,H-FKMDRQGVTQVLSCLSYISALGMMT-OH,< 2000
6,H-FLLQVPGSPVVSPSA-OH,> 2000
7,H-EDSDKLFESKAELADHQKF-OH,> 2000
8,H-LSPREEFLRLCKKIMMRSIQ-OH,> 2000
9,H-LNYLRTAKFLEMYGVDLHPVYG-OH,< 2000
10,H-VSGLEQLESIINFEKL-OH,> 2000
11,H-TWAGHVSTALARPLGAPWAEPGSCGPGTN-OH,> 2000
12,H-ERLSIQNFSKLLNDNIFYMS-OH,< 2000
13,H-KQGWTTEGIWKDVYIIKL-OH,< 2000
14,H-KMQRRNDDKSILMHGLVSLRESSRG-OH,> 2000
15,H-MAGPKGFQYRALYPFRRER-OH,> 2000
16,H-LMSNLAFADFCMRMYL-OH,< 2000
17,H-TKLKSKAPHWTNCILHEYKNLSTS-OH,> 2000
18,H-DKGHQFHVHPLLHSGDDLDP-OH,> 2000
19,H-GLEQLESIINFEKLTEWTSS-OH,< 2000
20,H-GSYLVALGAHTGEES-OH,> 2000
21,H-RGQIKLADFRLARLYSSEESR-OH,> 2000
22,H-LHTHYDYVSALHPVSTPSKEYTSA-OH,> 2000
23,H-NILHQEELIAQKKWEIEAKMEQK-OH,> 2000
24,H-SERYIGTEGGGMDQSILFLAEEGTAK-OH,< 2000
25,H-SPIKLVQKVASKIPFPDRITEESV-OH,> 2000
26,H-ALLQNVELRRNVLVSPTPLAN-OH,> 2000
27,H-TAQFAPSPGQPPALSPSYPGHRLPLQQG-OH,> 2000

row,Substance,solubility [µg/mL]
1,H-DDNGNILDPDKTSTIALFKAHEV-OH,> 2000
2,H-SRNTGHLHPTPRFPLLRWTQEPQPLE-OH,> 2000
3,H-LLDILDTAGREEYSAMRDQYMRT-OH,> 2000
4,H-YLLPKTAVVLRCPALRVRKP-OH,> 2000
5,H-KLRTIPLSDNTIFRRICTIAKHLE-OH,> 2000
6,H-TFPKKIQMLARDFLDEY-OH,> 2000
7,H-KGASLDAGWGSPRWTTTRMTSASAGRSTRA-OH,> 2000
8,H-SGSPPLRVSVGDFSQEFSPIQEAQQD-OH,> 2000
9,H-DPLMTCSEPERLTEILFQRAELE-OH,< 2000
10,H-HLLQKQTSIQSPSLYGNSSPPLNK-OH,> 2000
11,H-GDQYKATDFVADWAGTFKMVFTPKDGSG-OH,> 2000
12,H-TLDDIKEWLEDEGQVLNIQMRRTLHK-OH,< 2000
13,H-PLMQTELHQLVPEADPEEMA-OH,> 2000
14,H-HKSIGQPKLSTHPFLCPKPQKMNTSLGQHLTL-OH,> 2000
15,H-ASATEPANDSLFSPGAANLFSTYLAR-OH,> 2000
16,H-PGGDSGELITDAHELGVAHPPGY-OH,> 2000
17,H-GLTRISIQRAQPLPPCLPSFRPPTALQGLS-OH,> 2000
18,H-EVVGGYTWPSGNIYQGYWAQGKR-OH,> 2000
19,H-TTTSVKKEELVLSEEDFQGITPGAQ-OH,< 2000
20,H-LPDEVSGLEQLESIINFEKL-OH,> 2000
21,H-SAVSAASIPAEHINQATNGGGS-OH,> 2000
22,H-TTSGDERLYPSPTFYIHENYLQLFE-OH,< 2000
23,H-AAVDSVTIPPAQCYLSLLHLQQRRMQSA-OH,> 2000
24,H-IGALNPKRAAFFAEHYESWE-OH,< 2000
25,H-LLTDRNTSGTTFTLLGVSDYPELQVPLFLVFLA-OH,> 2000

# Second part, the substance after the results:
row,solubility [µg/mL],Substance
1,> 2000,H-RPAGRTQLLWTPAAPTAMAEVGPGHTP-OH
2,> 2000,H-DEQGREAELARSGPSAAGPVRLKPGLVPGL-OH
3,< 2000,H-YRMYQKGQETSTNLIASIFA-OH
4,> 2000,H-VDKNGRRRLVYLVENPGGYVAYS-OH
5,> 2000,H-GSTLSPVPWLPSEEFTLWSSLSPPG-OH
6,> 2000,H-DATFSDGSLGQLVKNTSATYALS-OH
7,> 2000,H-VDKNGRRRLVYLVENPGG-OH
8,> 2000,H-SHHTHSYQRYSHPLFLPGHRLDPPI-OH
9,< 2000,H-TSGSSTALPGSNPSTMDSGSGD-OH
10,> 2000,H-TTVTHERKQAKVVNPPIQEVGKGARK-OH
11,> 2000,H-VQLSIQDVIRRARLSTVPTAQRVALRSGWI-OH
12,> 2000,H-NQVLASRYGIRGFSTIKIFQKGESPV-OH
13,> 2000,H-ARLQSKEYPVIFKSIMRQRLISPQL-OH
14,< 2000,H-DHVSIILLSATIPNALEFADWIG-OH
15,> 2000,H-SQSSTPAMLFPAPAAHRTLTYLSQ-OH
16,> 2000,H-NNSKKKWFLFQDSKKIQVEQPQ-OH
17,< 2000,H-SAVSAASIPAMHINQATNGGGS-OH
18,> 2000,H-GHQKLPGKIHLFEAEFTQVAKKEPDG-OH
19,> 2000,H-ALSLTPGLRIGPSGLFLVFLAESAVDKGHPNRS-OH
20,> 2000,H-PAPPPAVPKEHPAPPAPPPASAPTP-OH
21,> 2000,H-LSVPFTCGVNFGDSIEDLEI-OH
22,> 2000,H-FPVVQSTEDVFPQGLPNEYAFVT-OH
23,> 2000,H-DSPAGPRRKECTMALAPNFTANNR-OH

row,solubility [µg/mL],Substance
1,> 2000,H-PRVDLQGAELWKRLHEIGTEMIITK-OH
2,> 2000,H-AVGATKVPRNQDWLGVSRQL-OH
3,> 2000,H-GSGALGAVGATKVPRNQDWL-OH
4,> 2000,H-VTSPKASPVTFPAAAFPTASPANKD-OH
5,> 2000,H-VSWGKKVQPIDSILADWNEDIEAFEMMEKD-OH
6,> 2000,H-TIKNSDKNVVLEHFG-OH
7,< 2000,H-LHFIMPEKFSFWEDFEE-OH
8,> 2000,H-LARDIPPAVTGKWKLSDLRRYGAVPSG-OH
9,< 2000,H-AIYHKYYHYLYSYYLPASLKNMVD-OH
10,> 2000,H-NNQTNSPTTPNFGSSGSFNLPNSGD-OH
11,> 2000,H-DHAPEFPAREMLLKYQKLLSQER-OH
12,> 2000,H-AHRQGEKQHLLPVFSRLALRLPWRHSVQL-OH
13,> 2000,H-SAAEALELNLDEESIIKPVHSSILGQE-OH
14,< 2000,H-DGVSEEFWLVDLLPSTHYT-OH
15,< 2000,H-EDSKYQNLLPFFVGHNMLLVSEE-OH
16,> 2000,H-TGKPEMDFVRLAQLFARARPMGLF-OH
17,> 2000,H-DLSYVSDQNGGVPDQILLHLRPTED-OH
18,< 2000,H-KQYLDHSGNLMSMHNIKIFMFQLLRG-OH
19,> 2000,H-TSRRLTGLLDHEVQAGRQ-OH
20,> 2000,H-LGETMGQVTEKLQPTYMEET-OH
21,> 2000,H-SHNELADSGIPENSFNVSSLVE-OH
22,> 2000,H-RYNSTAATNEVSEVTVFSKSPVT-OH
23,> 2000,H-GTKALQLHSIAGRWPRMEPWVVESMSLGVP-OH

row,solubility [µg/mL],Substance
1,> 2000,H-TKRQVILLHTELERFLEYLPLRF-OH
2,> 2000,H-FVGKLQRHPVAVDVLL-OH
3,> 2000,H-SGARIGAPPPHATATSSSSFMPGTWGREDL-OH
4,> 2000,H-SEIDFPMARSKLLKKKLPSKDL-OH
5,> 2000,H-VPRIAELMNKKLPSFGPYLE-OH
6,> 2000,H-AASAAAFPSQRTSWEFLQSLVSIKQEK-OH
7,> 2000,H-TKDRDLLVVAHDLIWKMSPRTGDAKPS-OH
8,> 2000,H-DDSLHIQATYISGPVLAGSGD-OH
9,> 2000,H-RARQILIASHLPFYELRHNQVES-OH
10,< 2000,H-YFDVVERSTEKIVDTSLIFNI-OH
11,> 2000,H-RLVLGKFGDLTNNFSSPHAR-OH
12,< 2000,H-EYWKVLDGELEVAPEYPQSTARDWL-OH
13,> 2000,H-VAGLAASGLHGSAWLVPGEQPVSGPHHGKQ-OH
14,> 2000,H-GTEPEPAFQDDAVNAPLEFKMAAGSSG-OH
15,> 2000,H-GSVLQFMPFTTVSELMKVSAMSSPKV-OH
16,> 2000,H-AESAQRQGPNGGGEQSANEF-OH
17,> 2000,H-GLEQLESIINFEKL-OH
18,> 2000,H-SDAFSGLTALPQSILLFGP-OH
19,> 2000,H-PAAVDSVTIPPAQCYLSLLHL-OH
20,> 2000,H-SHTQTTLFHTFYELLIQKNKHK-OH
21,> 2000,H-DASDFLPDTQLFPHFTELLLPLDPLEGSSV-OH
22,< 2000,H-SGQPAPEETVLFLGLLHGLLLILRRLRGG-OH
